From patent US7825146B2, “Sulfonamide derivative having isoxazole ring” (Shionogi & Co., Ltd., priority 2003, dated 2010) come the findings set out here.

What all share (assay type): biochemical
The target in one assay is T1, MMP-8 (Homo sapiens, UniProt P22894).
T1 construct: In regard to MMP-8, catalytic domain (^99Phe˜^262Gly) was amplified with PCR; His-tag; enterokinase digestion-site; made in house
Put plainly: Assay for inhibitory activities on MMPs (fluorogenic MOCAc peptide substrate): MMP-8. The conditions noted are these: catalytic domain 99Phe-262Gly. From the text:
In regard to MMP-8, catalytic domain (^99Phe˜^262Gly) was amplified with PCR using commercial available Human Bone Marrow cDNA. This was cloned in Escherichia. coli expression vector pTrc99AHE inserted with His-tag sequence and enterokinase digestion-site, induced and expressed by IPTG (Isdpropyl-β-D-thiogalactopyranoside) and expressed in a insoluble fraction (Thau F. Ho, M. Walid Qoronfleh, Robert C. Wahl, Trica A. Pulvino, Karen J. Vavra, Joe Falvo, Tracey M. Banks, Patricia G. Brake and Richard B. Ciccarelli: Gene expression, purification and characterization of recombinant human neutrophil collagenase. Gene 146, (1994) 297-301, Prepared by the a improved method of this material). Isolation of MMP-8 from an insoluble fraction was carried out by dissolving in modifier (6M urea) by a usual method and purification with metal chelate chromatography. And then removing modifier (6M urea) with dialysis and refolding of the enzyme spontaneously gave activated MMP-8.
(§1) The enzymatic activity on MMPs was analyzed by the method described in “C. Graham Knight, Frances Willenbrock and Gillian Murphy: A novel coumarin-labelled peptide for sensitive continuous assays of the matrix metalloproteinases: FEBS LETT., 296, (1992), 263-266”. The substrate: MOCAc-Pro-Leu-Gly-Leu-A2Pr(DNP)-Ala-Arg-NH2 was purchased from Peptide Institute, Inc., Osaka, Japan. The measurement of the inhibitory activities (IC50) was carried out by the following four methods; • (A) Reaction with substrate, enzyme (MMPs) and inhibitor • (B) Reaction with substrate and inhibitor, without enzyme • (C) Reaction with substrate and enzyme (MMPs), without inhibitor • (D) Reaction with substrate only IC50 values were calculated by using the following formula and each fluorescence values of above four methods (A to D).
(§2) The value of inhibitory activity against MMP-2, MMP-8, MMP-9, MMP-12, and MMP-13 measured by above mentioned methods are shown in Table 36, 37, 38, 39, and 40 respectively.

A further assay addresses T2, MMP-12 (Homo sapiens, UniProt P39900).
T2 construct: In regard to MMP-12, catalytic domain(^100Phe˜^263Gly) was amplified with RT-PCR; His-tag; enterokinase digestion-site; made in house
Put plainly: Assay for inhibitory activities on MMPs (fluorogenic MOCAc peptide substrate): MMP-12. The conditions noted are these: catalytic domain 100Phe-263Gly. As to the method: (§3) In regard to MMP-12, catalytic domain(^100Phe˜^263Gly) was amplified with RT-PCR from Human Placenta Total RNA. This was cloned in Escherichia. coli expression vector pTrc99AHE inserted with His-tag sequence and enterokinase digestion-site, induced and expressed by IPTG (Isopropyl-β-D-thiogalactopyranoside) and expressed in a insoluble fraction. Isolation of MMP-12 from an insoluble fraction was carried out by dissolving in modifier (6M urea) by a usual method and purification with metal chelate chromatography (Ni Chelateing Sepharose). And then removing modifier (6M urea) with dialysis and refolding of the enzyme spontaneously gave activated MMP-12.
as §1, §2

The target in another assay is T3, MMP-13 (Homo sapiens, UniProt P45452).
T3 construct: catalytic domain (^104Tyr˜^267Gly) was amplified with RT-PCR; His-tag; enterokinase digestion-site; made in house
Put plainly: Assay for inhibitory activities on MMPs (fluorogenic MOCAc peptide substrate): MMP-13. The settings on record: Table 40. As to the method:
as §3, with “MMP-13, mRNA was prepared from carcinoma cell SW1353 derived from human cartilage stimulate by IL-1, TNF and” for “MMP-12,”, “domain (^104Tyr˜^267Gly)” for “domain(^100Phe˜^263Gly)”, “RT-PCR.” for “RT-PCR from Human Placenta Total RNA.”, “MMP-13” for “MMP-12”, “dialyze” for “dialysis”, “MMP-13.” for “MMP-12.”
as §1, §2

The structures appear in SMILES notation.

T1 sequence (P22894 99-262): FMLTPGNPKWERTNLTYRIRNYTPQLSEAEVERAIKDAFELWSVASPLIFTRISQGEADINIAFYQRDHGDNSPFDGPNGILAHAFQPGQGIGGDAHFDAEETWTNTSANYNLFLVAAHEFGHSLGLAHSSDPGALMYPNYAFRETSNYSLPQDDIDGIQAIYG
T2 sequence (P39900 100-263): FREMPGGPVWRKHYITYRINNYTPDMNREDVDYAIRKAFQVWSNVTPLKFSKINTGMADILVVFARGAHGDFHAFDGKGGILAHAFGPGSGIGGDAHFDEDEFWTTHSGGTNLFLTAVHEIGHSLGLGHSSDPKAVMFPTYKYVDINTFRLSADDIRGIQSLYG

By IC50 is commonly meant the point on the concentration scale where inhibition reaches its midpoint. A lower IC50 goes with greater potency in that assay. `Cc1ccc(-c2cc(-c3ccc(S(=O)(=O)N[C@H](C(=O)O)C(C)C)cc3)no2)s1` [Example C-30]: the IC50 on MMP-8 was 0.00124 µM; on MMP-12, 0.000758 µM.

On MMP-8, `Cc1ccc(-c2cc(-c3ccc(S(=O)(=O)N[C@@H](C(=O)O)C(C)(C)C)cc3)no2)s1` [Example C-110] had an IC50 of 0.00252 µM. For the compound `CCCc1ccc(-c2cc(-c3ccc(S(=O)(=O)N[C@H](CC(=O)O)C(=O)O)cc3)no2)cc1` [Example C-114], the results for the 50% inhibitory concentration (IC50) against MMP-12 and at MMP-13 were 0.000578 µM and 0.000223 µM, respectively.

On to `CC(C)C[C@H](NS(=O)(=O)c1ccc(-c2cc(-c3ccc4c(c3)CCO4)on2)cc1)C(=O)O` [Example C-91], for which the IC50 worked out at 0.00108 µM against MMP-8 and 0.000184 µM against MMP-12.

At MMP-13, `CSCC[C@@H](NS(=O)(=O)c1ccc(-c2cc(-c3ccc(C(C)C)cc3)no2)cc1)C(=O)O` [Example A-107] yielded an IC50 of 0.000658 µM. That is a sub-nanomolar value.

Regarding `CC(C)[C@H](NS(=O)(=O)c1ccc(-c2cc(-c3ccc(OC(F)(F)F)cc3)on2)cc1)C(=O)O` [Example C-26], the results for the IC50 against MMP-12 and against MMP-13 were 0.000148 µM and 0.000884 µM, respectively. As for `CC(C)C[C@H](NS(=O)(=O)c1ccc(-c2cc(-c3ccc(Cl)s3)on2)cc1)C(=O)O` [Example C-79], the IC50 against MMP-8 came out at 0.00286 µM; at MMP-12 it was 0.0008 µM. Take `CC(C)C[C@H](NS(=O)(=O)c1ccc(-c2cc(-c3ccc(C(C)C)cc3)on2)cc1)C(=O)O` [Example C-60]: the IC50 against MMP-12 was 0.000335 µM; against MMP-13 it was 0.000919 µM. For `CCc1ccc(-c2cc(-c3ccc(S(=O)(=O)N[C@H](C(=O)O)C(C)C)cc3)no2)cc1` [Example C-13], in that order: 0.000201 µM and 0.000757 µM. `CC(C)C[C@@H](NS(=O)(=O)c1ccc(-c2cc(-c3ccc(Cl)s3)on2)cc1)C(=O)O` [Example C-78] registered an IC50 on MMP-8 of 0.00463 µM.

Regarding `Cc1ccc(-c2cc(-c3ccc(S(=O)(=O)N[C@@H](CC(C)C)C(=O)O)cc3)no2)s1` [Example C-75], the IC50 at MMP-8 worked out at 0.00198 µM; against MMP-12, 0.000677 µM.

Turning to `CC(C)[C@@H](NS(=O)(=O)c1ccc(-c2cc(-c3ccc4c(c3)CCO4)on2)cc1)C(=O)O` [Example C-47], the IC50 at MMP-8 amounted to 0.00107 µM; against MMP-12 it was 0.000264 µM. For the compound `O=C(O)C[C@@H](NS(=O)(=O)c1ccc(-c2cc(-c3ccc(C(F)(F)F)cc3)on2)cc1)C(=O)O` [Example C-115], it took 0.000643 µM to reach half-maximal inhibition on MMP-13 (IC50). The compound `CCc1ccc(-c2cc(-c3ccc(S(=O)(=O)N[C@H](CC(=O)O)C(=O)O)cc3)no2)cc1` [Example C-113] returned a half-maximal inhibitory concentration (IC50) against MMP-13 of 0.000733 µM. Still for that read-out and setting: under `CCc1ccc(-c2cc(-c3ccc(S(=O)(=O)N[C@@H](C(=O)O)C(C)C)cc3)on2)cc1` [Example A-26] stands 0.000943 µM; under `CC(C)c1ccc(-c2cc(-c3ccc(S(=O)(=O)N[C@H](Cc4c[nH]c5ccccc45)C(=O)O)cc3)on2)cc1` [Example A-111], 0.000465 µM. `CCC(C)[C@H](NS(=O)(=O)c1ccc(-c2cc(-c3ccc(C)s3)on2)cc1)C(=O)O` (some centres unmarked) [Example C-98]: the IC50 came to 0.00103 µM on MMP-8 and 0.000629 µM at MMP-12. For `COc1ccc(-c2cc(-c3ccc(S(=O)(=O)N[C@@H](C(=O)O)C(C)C)cc3)on2)cc1Cl` [Example A-56] the same measures were 0.00397 µM and 0.000898 µM. For `CC(C)C[C@H](NS(=O)(=O)c1ccc(-c2cc(-c3ccc(Cl)c(Cl)c3)on2)cc1)C(=O)O` [Example C-88], in that order: 0.00437 µM and 0.000184 µM. `CCC(C)[C@H](NS(=O)(=O)c1ccc(-c2cc(-c3ccc(Cl)s3)on2)cc1)C(=O)O` (some centres unmarked) [Example C-100] returned an IC50 at MMP-8 of 0.00111 µM. Consider `CCc1ccc(-c2cc(-c3ccc(S(=O)(=O)N[C@H](C(=O)O)C(C)CC)cc3)no2)cc1` (some centres unmarked) [Example C-95], for which the IC50 was 0.000172 µM at MMP-12 and 0.000702 µM at MMP-13. `Cc1ccc(-c2cc(-c3ccc(S(=O)(=O)N[C@H](CC(C)C)C(=O)O)cc3)no2)s1` [Example C-74] gave an IC50 on MMP-8 of 0.00416 µM. In other words, the single-digit nanomolar range. Turning to `CC(C)[C@H](NS(=O)(=O)c1ccc(-c2cc(-c3ccc(Cl)c(F)c3)on2)cc1)C(=O)O` [Example C-37], the IC50 against MMP-8 was 0.00433 µM; on MMP-12, 0.000172 µM. Turning to `CSCC[C@@H](NS(=O)(=O)c1ccc(-c2cc(-c3ccc(OC(F)(F)F)cc3)no2)cc1)C(=O)O` [Example A-108], the IC50 at MMP-12 is 0.000764 µM; against MMP-13, 0.000635 µM. Take `CC(C)[C@@H](NS(=O)(=O)c1ccc(-c2cc(-c3ccc(C(F)(F)F)cc3)on2)cc1)C(=O)O` [Example C-27]: the IC50 against MMP-12 turned out to be 0.000316 µM; against MMP-13 it was 0.000758 µM. As for `CCC(C)[C@H](NS(=O)(=O)c1ccc(-c2cc(-c3ccc(OC)cc3)on2)cc1)C(=O)O` (some centres unmarked) [Example C-96], the figures for the IC50 on MMP-8 and against MMP-12 were 0.00229 µM and 0.000228 µM, respectively. For `CC(C)[C@H](NS(=O)(=O)c1ccc(-c2cc(-c3ccc(Cl)c(Cl)c3)on2)cc1)C(=O)O` [Example C-41] the same measures were 0.00379 µM and 0.000294 µM. At MMP-8, `Cc1ccc(-c2cc(-c3ccc(S(=O)(=O)N[C@H](CC(=O)O)C(=O)O)cc3)no2)s1` [Example C-116] displayed an IC50 of 0.0023 µM. In other words, the single-digit nanomolar range.

As to `CC(C)C[C@H](NS(=O)(=O)c1ccc(-c2cc(-c3ccc4c(c3)OCO4)on2)cc1)C(=O)O` [Example C-86], the IC50 turned out to be 0.00478 µM at MMP-8 and 0.000545 µM at MMP-12.

For `CCC(C)[C@H](NS(=O)(=O)c1ccc(-c2cc(-c3ccc(Cl)c(Cl)c3)on2)cc1)C(=O)O` (some centres unmarked) [Example C-104], the IC50 at MMP-8 was 0.00489 µM; against MMP-12 it was 0.000281 µM. In the case of `CC(C)[C@@H](NS(=O)(=O)c1ccc(-c2cc(-c3ccc4c(c3)OCO4)on2)cc1)C(=O)O` [Example C-44], the figures for the IC50 against MMP-8 and at MMP-12 were 0.00359 µM and 0.000649 µM, respectively. For `CC(C)c1ccc(-c2cc(-c3ccc(S(=O)(=O)N[C@H](C(=O)O)C(C)C)cc3)no2)cc1` [Example C-16], the IC50 is 0.000287 µM against MMP-12 and 0.000403 µM on MMP-13. `CC(C)[C@H](NS(=O)(=O)c1ccc(-c2cc(-c3ccc4c(c3)OCO4)on2)cc1)C(=O)O` [Example C-45]: the IC50 on MMP-8 was 0.00366 µM; against MMP-12, 0.000641 µM. Compound `CC(C)C[C@@H](NS(=O)(=O)c1ccc(-c2cc(-c3ccc(C(C)C)cc3)on2)cc1)C(=O)O` [Example C-59] gave an IC50 against MMP-13 of 0.000889 µM. As to `COc1ccc(-c2cc(-c3ccc(S(=O)(=O)N[C@H](C(=O)O)C(C)C)cc3)no2)cc1` [Example C-19], the IC50 on MMP-8 came out at 0.00397 µM; against MMP-12 it was 0.000447 µM. For `COc1ccc(-c2cc(-c3ccc(S(=O)(=O)N[C@@H](CC(C)C)C(=O)O)cc3)on2)cc1F` [Example A-79], in that order: 0.00111 µM and 0.000622 µM.

`CCc1ccc(-c2cc(-c3ccc(S(=O)(=O)N[C@H](C(=O)O)C(C)CC)cc3)no2)s1` (some centres unmarked) [Example C-99]: the IC50 amounted to 0.000649 µM at MMP-12 and 0.000971 µM against MMP-13.

Take `CSc1ccc(-c2cc(-c3ccc(S(=O)(=O)N[C@H](C(=O)O)C(C)C)cc3)no2)cc1` [Example C-11]: the IC50 turned out to be 0.000289 µM against MMP-12 and 0.000739 µM on MMP-13. As for `CC(C)[C@H](NS(=O)(=O)c1ccc(-c2cc(-c3ccc(Cl)s3)on2)cc1)C(=O)O` [Example C-34], the IC50 at MMP-8 turned out to be 0.00177 µM; on MMP-12 it was 0.000866 µM. On to `CCC(C)[C@H](NS(=O)(=O)c1ccc(-c2cc(-c3ccc(OC(F)(F)F)cc3)on2)cc1)C(=O)O` (some centres unmarked) [Example C-102], for which the IC50 was determined as 0.00014 µM at MMP-12 and 0.000837 µM at MMP-13. On to `CC(C)[C@H](NS(=O)(=O)c1ccc(-c2cc(-c3ccc4c(c3)CCO4)on2)cc1)C(=O)O` [Example C-48], for which the IC50 came out at 0.000892 µM at MMP-8 and 0.0002 µM against MMP-12.
